{"source": "ChEMBL document CHEMBL2407042", "about": "“Investigation of the protein alkylation sites of the STAT3:STAT3 inhibitor Stattic by mass spectrometry” (Bioorg Med Chem Lett, 2013)", "key": {"Homo sapiens [1]": {"organism": "Homo sapiens", "assay": "Binding affinity to STAT3 beta (127 to 722) (unknown origin) expressed in Escherichia coli BL21 Rosetta at 50 uM after 1 hr by mass spectrophotometric analysis"}, "Homo sapiens [2]": {"organism": "Homo sapiens", "assay": "Binding affinity to STAT3 beta (127 to 722) (unknown origin) expressed in Escherichia coli BL21 Rosetta at 50 uM treated for 1 hr prior to trypsin digestion measured after 24 hrs by LC-MS/MS analysis in presence of ammonium bicarbonate and N-octyl-glucoside"}, "Homo sapiens [3]": {"organism": "Homo sapiens", "assay": "Binding affinity to STAT3 beta (127 to 722) (unknown origin) expressed in Escherichia coli BL21 Rosetta at 50 uM treated for 1 hr prior to trypsin digestion measured after 24 hrs by LC-MS/MS analysis in presence of ammonium bicarbonate"}, "Homo sapiens [4]": {"organism": "Homo sapiens", "assay": "Binding affinity to STAT3 beta (127 to 722) (unknown origin) expressed in Escherichia coli BL21 Rosetta at 50 uM treated for 1 hr prior to trypsin digestion measured after 24 hrs by LC-MS/MS analysis in presence of ammonium bicarbonate and acetonitrile"}, "Homo sapiens [5]": {"organism": "Homo sapiens", "assay": "Binding affinity to STAT3 beta (127 to 722) (unknown origin) expressed in Escherichia coli BL21 Rosetta at 50 uM treated for 1 hr prior to trypsin digestion measured after 24 hrs by LC-MS/MS analysis in presence of ammonium bicarbonate and guanidium HCl"}}, "note": "Active and inactive are the calls of the source. No cut-off for these calls is given here.", "data": [{"smiles": "O=[N+]([O-])c1ccc2c(c1)S(=O)(=O)C=C2", "values": [{"measurement": "Activity", "setting": "Homo sapiens [1]", "value": "Active"}, {"measurement": "Activity", "setting": "Homo sapiens [2]", "value": "Active"}, {"measurement": "Activity", "setting": "Homo sapiens [3]", "value": "Active"}, {"measurement": "Activity", "setting": "Homo sapiens [4]", "value": "Active"}, {"measurement": "Activity", "setting": "Homo sapiens [5]", "value": "inactive"}]}]}
